Laboratory results published in ChEMBL document CHEMBL1155437, “Anti-infective discorhabdins from a deep-water alaskan sponge of the genus Latrunculia” (J Nat Prod, 2010).
Values after ≈ are worked out from the molar mass of the structure shown. Active and inactive are the calls of the source. The rule behind the calls is not given here.

Experiments:
Staphylococcus aureus = experiment: Antibacterial activity against methicillin-resistant Staphylococcus aureus by modified NCCLS method; assay type: functional, organism-based
[1] = test system: Mycobacterium intracellulare; experiment: Antibacterial activity against Mycobacterium intracellular by after 4 days alamar blue assay; assay type: functional, organism-based
Plasmodium falciparum [2] = experiment: Antimalarial activity against chloroquine-sensitive Plasmodium falciparum D6 assessed as parasite LDH activity after 72 hrs by malstat reagent method; assay type: functional, organism-based; details: D6, 72 h
[3] = Cytotoxicity against human HuH7 cells at 10 uM after 5 days by RT-PCR; assay type: cell-based; details: huh-7, 120 h
Mus musculus [4] = experiment: Toxicity in Plasmodium berghei infected mice (Mus musculus) assessed as mortality at 10 mg/kg, perorally or subcutaneously QD for 2 days measured on day 4; assay type: organism-based; design: dose 10 mg/kg, route oral; details: in vivo, po, 48 h
Hepatitis C virus = experiment: Antiviral activity against HCV infected in human HuH7 clone B cells assessed as inhibition of viral RNA replication after 5 days by RT-PCR based replicon assay relative to control; assay type: functional, Hepacivirus hominis; details: Huh-7, 120 h
Plasmodium falciparum [5] = experiment: Antimalarial activity against chloroquine-resistant Plasmodium falciparum W2 assessed as parasite LDH activity after 72 hrs by malstat reagent method; assay type: functional, organism-based; details: W2, 72 h
Mus musculus [6] = experiment: Toxicity in Plasmodium berghei infected mice (Mus musculus) assessed as dehydration at 10 mg/kg, perorally or subcutaneously QD on day 1; assay type: organism-based; design: dose 10 mg/kg, route oral; details: in vivo, po
Mus musculus [7] = experiment: Toxicity in Plasmodium berghei infected mice (Mus musculus) assessed as loss of weight at 10 mg/kg, perorally or subcutaneously QD on day 1; assay type: organism-based; design: dose 10 mg/kg, route oral; details: in vivo, po
Mus musculus [8] = experiment: Toxicity in Plasmodium berghei infected mice (Mus musculus) assessed as mortality at 10 mg/kg, perorally or subcutaneously QD for 2 days measured on day 3; assay type: organism-based; design: dose 10 mg/kg, route oral; details: in vivo, po, 48 h
Vero = experiment: Cytotoxicity against african green monkey Vero cells by neutral red assay; assay type: cell-based; details: Chlorocebus sabaeus
[9] = Selectivity index, ratio of IC50 for african green monkey (Cercopithecus aethiops) Vero cells to IC50 for chloroquine-resistant Plasmodium falciparum W2; assay type: toxicity, cell-based; details: read-out: Ratio IC50
Mus musculus [10] = experiment: Toxicity in Plasmodium berghei infected mice (Mus musculus) assessed as reduction of movements at 10 mg/kg, perorally or subcutaneously QD on day 1; assay type: organism-based; design: dose 10 mg/kg, route oral; details: in vivo, po
[11] = test system: Mycobacterium tuberculosis; experiment: Antituberculosis activity against Mycobacterium tuberculosis H37Rv after 4 days by alamar blue assay; assay type: functional, organism-based; details: 96 h
[12] = Selectivity index, ratio of IC50 for african green monkey (Cercopithecus aethiops) Vero cells to IC50 for chloroquine-sensitive Plasmodium falciparum D6; assay type: toxicity, cell-based; details: read-out: Ratio IC50
Mus musculus [13] = experiment: Toxicity in Plasmodium berghei infected mice (Mus musculus) at 10 mg/kg, perorally or subcutaneously administered 2 hrs post infection; assay type: organism-based; design: dose 10 mg/kg, route oral; details: in vivo, po
Mus musculus [14] = experiment: Toxicity in Plasmodium berghei infected mice (Mus musculus) at 10 mg/kg, perorally or subcutaneously QD for 2 days measured on day 2; assay type: organism-based; design: dose 10 mg/kg, route oral; details: in vivo, po, 48 h
Plasmodium berghei = experiment: Antimalarial activity against Plasmodium berghei infected in mice (Mus musculus) assessed as parasitaemia at 10 mg/kg, perorally or subcutaneously administered 2 hrs post infection daily for 2 days measured on day 5 by microscopy; assay type: functional; details: route oral
Mus musculus [15] = experiment: Toxicity in Plasmodium berghei infected mice (Mus musculus) at 10 mg/kg, perorally or subcutaneously QD for 2 days measured on day 5; assay type: organism-based; design: dose 10 mg/kg, route oral; details: in vivo, po, 48 h
Mus musculus [16] = experiment: Toxicity in Plasmodium berghei infected mice (Mus musculus) assessed as loss of weight at 10 mg/kg, perorally or subcutaneously QD for 2 days measured on day 5; assay type: organism-based; design: dose 10 mg/kg, route oral; details: in vivo, po, 48 h
[17] = Mycobacterium intracellulare, 96 h
[18] = Mycobacterium intracellulare, 96 h, read-out: IC50

| Compound | IC50 (Staphylococcus aureus) | MIC (Staphylococcus aureus) | MIC [1, 17] | IC50 (Plasmodium falciparum [2]) | Activity [3] | EC90 (Hepatitis C virus) | IC50 (Plasmodium falciparum [5]) | IC50 (Vero) | selectivity ratio [9] | MIC [11] | selectivity ratio [12] | Activity (Mus musculus [13]) | IC50 [1, 18] | other results |
| --- | --- | --- | --- | --- | --- | --- | --- | --- | --- | --- | --- | --- | --- | --- |
| O=C(O)c1cn(C2CC2)c2cc(N3CCNCC3)c(F)cc2c1=O [CIPROFLOXACIN] | 1.1 µM | 3 µM (≈ 0.994 µg/mL) | 1.5 µM (≈ 0.497 µg/mL) |  |  |  |  |  |  |  |  |  |  |  |
| O=C1C2=C(C3=NCCc4c[nH]c1c43)C1(C=C(Br)C(O)C(Br)=C1)CCN2 (configuration not stated) [DIHYDRODISCORHABDIN C] | 13 µM |  |  | 170 nM | Active | < 10 µM | 130 nM | 9.8 µM | 75 | 14 µM (≈ 6.51 µg/mL) | 58 | Non-toxic |  | Activity (Mus musculus [4]): Toxic; Activity (Mus musculus [6]): Toxic; Activity (Mus musculus [7]): Toxic; Activity (Mus musculus [8]): Toxic; Activity (Mus musculus [10]): Toxic; IC50 [1]: Not Active; MIC [1]: inactive |
| O=C1C(Br)=CC2(C=C1Br)CCNC1=C2C2=NCCc3c[nH]c(c32)C1=O [DISCORHABDIN C] | 3.2 µM | 11 µM (≈ 5.09 µg/mL) | 0.17 µM (≈ 0.0787 µg/mL) | 2800 nM | Active | < 10 µM | 2000 nM | 2.8 µM | 1.4 | 8 µM (≈ 3.71 µg/mL) | 1 |  | 130 nM | IC50 [11]: 6.8 µM |
| O=C1C[C@H]2S[C@H]3C[C@]2(C=C1Br)C1=C(N3)C(=O)c2[nH]cc3c2C1=NCC3 [DISCORHABDINE A] | 4.8 µM | 12 µM (≈ 5 µg/mL) | 0.74 µM (≈ 0.308 µg/mL) | 53 nM | Active | < 10 µM | 53 nM | 6.8 µM | 130 | 7.7 µM (≈ 3.21 µg/mL) | 130 | Non-toxic | 360 nM | Activity (Mus musculus [14]): Toxic; Activity (Plasmodium berghei): 6.6%; Activity (Mus musculus [15]): Toxic; Activity (Mus musculus [16]): > 25% |
| NNC(=O)c1ccncc1 [ISONIAZID] |  |  |  |  |  |  |  |  |  | 3.2 µM (≈ 0.439 µg/mL) |  |  |  |  |
| CO[C@H]1/C=C/O[C@@]2(C)Oc3c(C)c(O)c4c(O)c(c(/C=N/N5CCN(C)CC5)c(O)c4c3C2=O)NC(=O)/C(C)=C\C=C\[C@H](C)[C@H](O)[C@@H](C)[C@@H](O)[C@@H](C)[C@H](OC(C)=O)[C@@H]1C [RIFAMPIN] |  |  |  |  |  |  |  |  |  | 0.21 µM (≈ 0.173 µg/mL) |  |  |  |  |
